Experimental data from patent publication US20180051132A1, “ELASTOMER COUPLED WITH BIOACTIVE FATTY ACID” (University of Pittsburgh - Of the Commonwealth System of …, priority 2016, published 2018).

Tested on: sheep vascular endothelial cell (SVEC)
Test: SVEC proliferation/cytotoxicity, CellTiterBlue assay
Type: cell-based
Settings: without growth factors
Procedure: The cell media used was the EGM-2 Bullet Kit (CC-3162) from Lonza. It consists of 500 mL of basal media, antibiotics GA-1000 (Gentamicin, Amphotecerin-B), FBS (Fetal Bovine Serum) 10 mL, and a kit of growth factors (VEGF, hFGF-B, R3-IGF-1, Ascorbic Acid, Heparin). • In vitro viability assay:Live/dead assay • In vitro cytotoxicity(biocompatibility)/proliferation assay: CellTiterBlue® assay • This in vitro test was to find the optimal linoleic acid content in the material. Cells were cultured in different concentration of LA. […]
The fluorescence of live cells were measured at three time points:1, 3, 5 days. […] Fluorescence was recorded triple times for each well at 560 nm/590 nm excitation/emission.

Question: What does the source list for `CCCCC/C=C\C/C=C\CCCCCCCC(=O)O` [LA, linoleic acid]?
Answer: SVEC proliferation (36 nM LA): higher proliferation than the cells in the positive control medium; SVEC proliferation (360 nM LA): higher proliferation than the cells in the positive control medium
